Measurements published in patent US9271967B2, “1,2,4-triazolo[4,3-a]pyridine derivatives and their use as positive allosteric modulators of mGluR2 receptors” (Janssen Pharmaceuticals, Inc., priority 2010, dated 2016).

What was measured:
human mGluR2 receptor = target: T1, human mGluR2 receptor (Homo sapiens, UniProt Q14416); experiment: [35S]GTPγS binding assay (PAM assay); type: biochemical; settings: in presence of glutamate at EC20; for Emax / GTPγS-hmGluR2 PAM Emax: maximal % effect relative to the control glutamate response; for Emax: read-out: GTPγS-hmGluR2 PAM Emax; for EC50: membranes of CHO cells transfected with human mGluR2, -log EC50 in M, read-out: GTPγS-hmGluR2 PAM pEC50 (converted)
T1 construct: expressed in transfected cells; host or cells: CHO cells
Description: The [^35S]GTPγS binding assay is a functional membrane-based assay used to study G-protein coupled receptor (GPCR) function whereby incorporation of a non-hydrolysable form of GTP, [^35S]GTPγS (guanosine 5′-triphosphate, labelled with […] ^35S), is measured. The G-protein α subunit catalyzes the exchange of guanosine 5′-diphosphate (GDP) by guanosine triphosphate (GTP) and on activation of the GPCR by an agonist, [^35S]GTPγS, becomes incorporated and cannot be cleaved to continue the exchange cycle (Harper (1998) Current Protocols in Pharmacology 2.6.1-10, John Wiley & Sons, Inc.). […] Here we describe the use of the [^35S]GTPγS binding assay using membranes from cells transfected with the human mGluR2 receptor and adapted from Schaffhauser et al. ((2003) Molecular Pharmacology 4:798-810) for the detection of the positive allosteric modulation (PAM) properties of the compounds of this invention.
CHO-cells were cultured to pre-confluence and stimulated with 5 mM butyrate for 24 h. Cells were then collected by scraping in PBS and cell suspension was centrifuged (10 min at 4000 RPM in benchtop centrifuge). Supernatant was discarded and pellet gently resuspended in 50 mM Tris-HCl, pH 7.4 by mixing with a vortex and pipetting up and down. The suspension was centrifuged at 16,000 RPM (Sorvall RC-5C plus rotor SS-34) for 10 minutes and the supernatant discarded. The pellet was homogenized in 5 mM Tris-HCl, pH 7.4 using an ultra-turrax homogenizer and centrifuged again (18,000 RPM, 20 min, 4° C.). The final pellet was resuspended in 50 mM Tris-HCl, pH 7.4 and stored at −80° C. in appropriate aliquots before use. Protein concentration was determined by the Bradford method (Bio-Rad, USA) with bovine serum albumin as standard.
Measurement of mGluR2 positive allosteric modulatory activity of test compounds was performed as follows. Test compounds and glutamate were diluted in assay buffer containing 10 mM HEPES acid, 10 mM HEPES salt, pH 7.4, 100 mM NaCl, 3 mM MgCl2 and 10 μM GDP. Human mGlu2 receptor-containing membranes were thawed on ice and diluted in assay buffer supplemented with 14 μg/ml saponin. Membranes were pre-incubated with compound alone or together with a predefined (˜EC20) concentration of glutamate (PAM assay) for 30 min at 30° C. After addition of [^35S]GTPγS (f.c. 0.1 nM), assay mixtures were shaken briefly and further incubated to allow [^35S]GTPγS incorporation on activation (30 minutes, 30° C.). Final assay mixtures contained 7 μg of membrane protein in 10 mM HEPES acid, 10 mM HEPES salt, pH 7.4, 100 mM NaCl, 3 mM MgCl2, 10 μM GDP and 10 μg/ml saponin. Total reaction volume was 200 μl. Reactions were terminated by rapid filtration through Unifilter-96 GF/B plates (Perkin Elmer, Mass., USA) using a 96-well filtermate universal harvester. Filters were washed 6 times with ice-cold 10 mM NaH2PO4/10 mM Na2HPO4, pH 7.4. Filters were then air-dried, and 40 μl of liquid scintillation cocktail (Microscint-O) was added to each well. Membrane-bound radioactivity was counted in a Microplate Scintillation and Luminescence Counter from Perkin Elmer.
The concentration-response curves of representative compounds of the present invention—obtained in the presence of EC20 of mGluR2 agonist glutamate to determine positive allosteric modulation (PAM)—were generated using the Lexis software interface (developed at J&J). Data were calculated as % of the control glutamate response, defined as the maximal response that is generated upon addition of glutamate alone. Sigmoid concentration-response curves plotting these percentages versus the log concentration of the test compound were analyzed using non-linear regression analysis. The concentration producing half-maximal effect is then calculated as EC50. The pEC50 values below were calculated as the −log EC50, when the EC50 is expressed in M. Emax is defined as relative maximal effect (i.e. maximal % effect relative to the control glutamate response).

T1 sequence (Q14416 19-872): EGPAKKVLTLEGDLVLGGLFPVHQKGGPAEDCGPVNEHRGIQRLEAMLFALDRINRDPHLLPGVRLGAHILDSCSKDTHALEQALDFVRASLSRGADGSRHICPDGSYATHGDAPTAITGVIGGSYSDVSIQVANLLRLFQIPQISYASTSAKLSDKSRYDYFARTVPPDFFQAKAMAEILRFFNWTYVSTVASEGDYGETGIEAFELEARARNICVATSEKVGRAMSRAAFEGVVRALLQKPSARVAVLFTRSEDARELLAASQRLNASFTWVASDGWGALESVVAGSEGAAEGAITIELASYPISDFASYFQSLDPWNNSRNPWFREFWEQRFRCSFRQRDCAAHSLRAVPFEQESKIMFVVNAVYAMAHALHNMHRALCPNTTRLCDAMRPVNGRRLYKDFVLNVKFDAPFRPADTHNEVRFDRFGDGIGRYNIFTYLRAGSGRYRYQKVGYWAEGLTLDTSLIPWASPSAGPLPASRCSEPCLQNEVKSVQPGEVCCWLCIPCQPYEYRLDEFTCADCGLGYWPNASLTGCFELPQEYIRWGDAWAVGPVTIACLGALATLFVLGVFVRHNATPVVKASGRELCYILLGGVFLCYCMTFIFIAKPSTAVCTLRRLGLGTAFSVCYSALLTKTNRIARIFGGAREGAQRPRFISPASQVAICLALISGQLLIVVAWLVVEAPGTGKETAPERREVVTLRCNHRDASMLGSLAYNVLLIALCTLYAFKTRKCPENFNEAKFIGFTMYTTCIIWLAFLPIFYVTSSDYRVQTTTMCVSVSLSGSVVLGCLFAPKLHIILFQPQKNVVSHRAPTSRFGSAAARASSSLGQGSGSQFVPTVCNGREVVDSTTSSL

Row | Emax (human mGluR2 receptor) [%] | EC50 (human mGluR2 receptor) [nM] | GTPγS-hmGluR2 PAM Emax (human mGluR2 receptor; listed as 28b) [%] | melting point [°C] | GTPγS-hmGluR2 PAM Emax (human mGluR2 receptor; listed as 28a) [%] | Compound
1 | 228 | 324 | – | – | – | CCc1nnc2c(C(F)(F)F)c(CN[C@H]3CC[C@@H](c4ccccc4)CC3)ccn12 [Co. no. 8, 3-Ethyl-N-(cis-4-phenylcyclohexyl)-8-(trifluoromethyl)-1,2,4-triazolo[4,3-a]pyridine-7-methanamine]
2 | 227 | 794 | – | – | – | FC(F)(F)c1c(CNC2Cc3ccccc3C2)ccn2c(CC3CC3)nnc12 [Co. no. 6, 3-(Cyclopropylmethyl)-N-(2,3-dihydro-1H-inden-2-yl)-8-(trifluoromethyl)-1,2,4-triazolo[4,3-a]pyridine-7-methanamine]
3 | 197 | 1200 | – | – | – | CCc1nnc2c(C(F)(F)F)c(CN[C@H]3CC[C@H](c4ccccc4)CC3)ccn12 [Co. no. 4, 3-Ethyl-N-(trans-4-phenylcyclohexyl)-8-(trifluoromethyl)-1,2,4-triazolo[4,3-a]-pyridine-7-methanamine]
4 | 267 | 871 | – | – | – | FC(F)(F)c1c(CNC2CC2c2ccccc2)ccn2c(CC3CC3)nnc12 (stereo not drawn) [Co. no. 27, Trans-N-{[3-(Cyclopropylmethyl)-8-(trifluoromethyl)[1,2,4]triazolo[4,3-a]pyridin-7-yl]methyl}-2-phenylcyclopropanamine]
5 | – | 575 | 285 | – | – | FC(F)(F)c1c(CNC2CCOc3ccccc32)ccn2c(CC3CC3)nnc12 (single isomer, unassigned) [Co. no. 28b, (4*S)—N-{[3-(Cyclopropylmethyl)-8-(trifluoromethyl) [1,2,4]triazolo[4,3-a]pyridin-7-yl]methyl}-3,4-dihydro-2H-chromen-4-amine]
6 | 263 | 42.7 | – | – | – | FC(F)(F)c1c(CN[C@H]2CC[C@@H](c3ccccc3)CC2)ccn2c(CC3CC3)nnc12 [Co. no. 7, 3-(Cyclopropylmethyl)-N-(cis-4-phenylcyclohexyl)-8-(trifluoromethyl)-1,2,4-triazolo-[4,3-a]pyridine-7-methanamine]
7 | 239 | 1200 | – | 139.6 | – | FC(F)(F)c1c(CN[C@@H]2CCO[C@@H](c3ccccc3)C2)ccn2c(CC3CC3)nnc12 [Co. no. 30, (2R,4R)—N-{[3-(Cyclopropylmethyl)-8-(trifluoromethyl)[1,2,4]triazolo[4,3-a]pyridin-7-yl]methyl}-2-phenyltetrahydro-2H-pyran-4-amine]
8 | 201 | – | – | – | – | FC(F)(F)c1c(CNC2COCC2c2ccccc2)ccn2c(CC3CC3)nnc12 (stereo not drawn) [Co. no. 31, Cis-N-{[3-(Cyclopropylmethyl)-8-(trifluoromethyl) [1,2,4]triazolo[4,3-a]pyridin-7-yl]methyl}-4-phenyltetrahydrofuran-3-amine]
9 | 257 | 589 | – | – | – | Clc1c(CN[C@H]2CC[C@@H](c3ccccc3)CC2)ccn2c(CC3CC3)nnc12 [Co. no. 12, 8-Chloro-3-(cyclopropylmethyl)-N-(cis-4-phenylcyclohexyl)-1,2,4-triazolo-[4,3-a]pyridine-7-methanamine]
10 | 235 | 234 | – | 157.4 | – | FC(F)(F)c1c(CN[C@H]2CC[C@H](c3ccccc3)CC2)ccn2c(CC3CC3)nnc12 [Co. no. 3, 3-(Cyclopropylmethyl)-N-(trans-4-phenylcyclohexyl)-8-(trifluoromethyl)-1,2,4-triazolo[4,3-a]pyridine-7-methanamine]
11 | 209 | 209 | – | – | – | CCc1nnc2c(C(F)(F)F)c(CN[C@H]3CC[C@@H](c4ccc(F)cc4F)CC3)ccn12 [Co. no. 9, N-[Cis-4-(2,4-difluorophenyl)cyclohexyl]-3-ethyl-8-(trifluoromethyl)-1,2,4-triazolo[4,3-a]pyridine-7-methanamine]
12 | 209 | – | – | 95.8 | – | FC(F)(F)c1c(CN[C@H]2CCO[C@H](c3ccccc3)C2)ccn2c(CC3CC3)nnc12 [Co. no. 29, (2S,4S)—N-{[3-(Cyclopropylmethyl)-8-(trifluoromethyl) [1,2,4]triazolo[4,3-a]pyridin-7-yl]methyl}-2-phenyltetrahydro-2H-pyran-4-amine]
13 | 242 | 170 | – | – | – | CCOCc1nnc2c(C(F)(F)F)c(CN[C@H]3CC[C@@H](c4ccccc4)CC3)ccn12 [Co. no. 10, 3-(Ethoxymethyl)-N-(cis-4-phenylcyclohexyl)-8-(trifluoromethyl)-1,2,4-triazolo-[4,3-a]pyridine-7-methanamine]
14 | 278 | – | – | – | – | CCOCc1nnc2c(C(F)(F)F)c(CN[C@H]3CC[C@H](c4ccccc4)CC3)ccn12 [Co. no. 11, 3-(Ethoxymethyl)-N-(trans-4-phenylcyclohexyl)-8-(trifluoromethyl)-1,2,4-triazolo-[4,3-a]pyridine-7-methanamine]
15 | 243 | – | – | – | – | Clc1c(CN[C@H]2CC[C@H](c3ccccc3)CC2)ccn2c(CC3CC3)nnc12 [Co. no. 13, 8-Chloro-3-(cyclopropylmethyl)-N-(trans-4-phenylcyclohexyl)-1,2,4-triazolo-[4,3-a]pyridine-7-methanamine]
16 | – | 794 | – | – | 257 | FC(F)(F)c1c(CNC2CCOc3ccccc32)ccn2c(CC3CC3)nnc12 (single isomer, unassigned) [Co. no. 28a, (4*R)—N-{[3-(Cyclopropylmethyl)-8-(trifluoromethyl) [1,2,4]triazolo[4,3-a]pyridin-7-yl]methyl}-3,4-dihydro-2H-chromen-4-amine]
17 | 321 | 617 | – | – | – | Fc1ccc(N2CCC(NCc3ccn4c(CC5CC5)nnc4c3C(F)(F)F)CC2)c(F)c1 [Co. no. 2, 3-(Cyclopropylmethyl)-N-[1-(2,4-difluorophenyl)-4-piperidinyl]-8-(trifluoromethyl)-1,2,4-triazolo[4,3-a]pyridine-7-methanamine]
